In patent publication US20090186111A1, “Novel Bacteria and Pharmaceutically Active Products Obtained Therefrom” (priority 2004, published 2009):

Test system: S. aureus LSLT1111
Assay: Antibiogram of S. aureus LSLT1111

| Molecule | Diameter of clear area [mm] | Sensitivity to antibiotic |
| --- | --- | --- |
| Gentamicin | 16.6 | Sensitive |
| CC(=O)OCC1=C(C(=O)O)N2C(=O)[C@@H](NC(=O)Cc3cccs3)[C@H]2SC1 [Cephalothin] | 28.8 | Sensitive |
| Sulpha/trimethoprim | 18.8 | Sensitive |
| CC1(C)S[C@@H]2[C@H](NC(=O)[C@H](N)c3ccccc3)C(=O)N2[C@H]1C(=O)O [Ampicillin] | 12.6 | Resistant |
| Neomycin | 14.7 | Resistant/Sensitive |
| Amox. Clav. ac | 28.0 | Sensitive |
| CCC[C@@H]1C[C@@H](C(=O)N[C@@H]([C@H]2O[C@H](SC)[C@H](O)[C@@H](O)[C@H]2O)[C@@H](C)O)N(C)C1 [Lincomycin] | 16.7 | Resistant/Sensitive |
| Penicillin | 9.0 | Resistant |
| CN[C@H](CC(C)C)C(=O)N[C@H]1C(=O)N[C@@H](CC(N)=O)C(=O)N[C@H]2C(=O)N[C@H]3C(=O)N[C@H](C(=O)N[C@H](C(=O)O)c4cc(O)cc(O)c4-c4cc3ccc4O)[C@H](O)c3ccc(c(Cl)c3)Oc3cc2cc(c3O[C@@H]2O[C@H](CO)[C@@H](O)[C@H](O)[C@H]2O[C@H]2C[C@](C)(N)[C@H](O)[C@H](C)O2)Oc2ccc(cc2Cl)[C@H]1O [Vancomycin] | 11.9 | Sensitive |
| CC[C@H]1OC(=O)[C@H](C)[C@@H](O[C@H]2C[C@@](C)(OC)[C@@H](O)[C@H](C)O2)[C@H](C)[C@@H](O[C@@H]2O[C@H](C)C[C@H](N(C)C)[C@H]2O)[C@](C)(O)C[C@@H](C)C(=O)[C@H](C)[C@@H](O)[C@]1(C)O [Erythromycin] | 17.3 | Resistant/Sensitive |
| O=C(N[C@H](CO)[C@H](O)c1ccc([N+](=O)[O-])cc1)C(Cl)Cl [Chloramphenicol] | 18.6 | Sensitive |
| COc1cccc(OC)c1C(=O)N[C@@H]1C(=O)N2[C@@H]1SC(C)(C)[C@@H]2C(=O)O [Meticillin] | 23.3 | Sensitive |
| CN(C)[C@@H]1C(=O)C(C(N)=O)=C(O)[C@@]2(O)C(=O)C3=C(O)c4c(O)cccc4[C@@](C)(O)[C@H]3C[C@@H]12 [Tetracyclin] | 19.8 | Sensitive |
